The record followed here is BindingDB's records for doi:10.1021/jm0205752 (University of Queensland, 2004).

In general, Ki refers to the dissociation constant of the complex between target and ligand, obtained from inhibition or displacement.

This experiment has as its target T1, Alpha-2A adrenergic receptor [16-465] (Rattus norvegicus, UniProt P22909).
T1 construct: 16-465
T1 sequence (P22909 whole entry): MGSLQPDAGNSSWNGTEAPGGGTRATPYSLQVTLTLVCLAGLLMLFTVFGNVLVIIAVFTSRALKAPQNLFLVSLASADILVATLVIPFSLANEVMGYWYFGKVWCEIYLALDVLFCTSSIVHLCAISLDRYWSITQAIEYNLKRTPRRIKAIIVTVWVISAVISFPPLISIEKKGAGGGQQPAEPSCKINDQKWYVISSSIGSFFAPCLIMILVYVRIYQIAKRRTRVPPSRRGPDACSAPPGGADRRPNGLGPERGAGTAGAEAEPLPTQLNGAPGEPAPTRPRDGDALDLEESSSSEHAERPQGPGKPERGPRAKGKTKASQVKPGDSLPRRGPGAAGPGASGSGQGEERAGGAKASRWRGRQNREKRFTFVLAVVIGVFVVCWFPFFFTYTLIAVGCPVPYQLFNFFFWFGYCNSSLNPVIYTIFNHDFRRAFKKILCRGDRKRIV
Put plainly: alpha-Adrenoceptor Radioligand Binding Assay. The following applies: pH 7.7; 25 °C. As to the method:
The binding affinity of compound was evaluated using [3H] Clonidine as ligand in competition binding experiments. Nonspecific binding was determined as the concentration of ligand bound in the presence of 2 uM phentolamine. Ki values were determined by the equation: Ki = IC50/(1 + [clonidine]/KD).

`NS(=O)(=O)c1ccc2c(c1)CNCC2` [1,2,3,4-tetrahydroisoquinoline-7-sulfonamide]: the affinity, expressed as Ki, was 100 µM.
